Reference: patent publication US10835456B2, “Propyl gallate-containing vitamin preparations” (BASF SE, priority 2016, dated 2020)

What was measured:
[1] = Stress test: stability in premix mixture, stored at 40° C. and 70% humidity for 4 weeks, retention of vitamin content; assay type: physicochemical; details: for Retention Active ingredient content after 4-week premix test: Table 3c; for Retention Canthaxanthin after 4-week test: Table 5c
Protocol: The stress test for the vitamins is configured such that specimens of 100 mg in each case of the formulation produced and 4 g of premix mixture are weighed into glass vessels. The premix mixture consists of 50% by weight of fine lime (particle size <1000 μm), 20% by weight of wheat bran (particle size <1000 μm), 20% by weight of 50% silica-supported choline chloride (particle size <1000 μm) and 10% by weight of trace element mixture (particle size 100-500 μm). The trace element mixture is composed of 46.78% by weight of FeSO4x7H2O (100-500 μm), 37.43% by weight of CuSO4x5H2O (100-500 μm), 11.79% by weight of ZnO (<500 μm), 3.61% by weight of MnO and 0.39% by weight of CoCO3. After addition of all ingredients, the specimens are mixed cautiously, with performance of the mixing mechanically or else by hand, and these specimens (A) are stored in a climate-controlled chamber at 40° C. and 70% humidity for 4 weeks. […]
For this purpose, specimens each of 100 mg of the formulation produced and 4 g of premix mixture are weighed out in glass vessels (50 mL glass vials). The premix mixture consists of 50% by weight of fine lime (particle size <1000 μm), 20% by weight of wheat bran (particle size <1000 μm), 20% by weight of 50% silica-supported choline chloride (particle size <1000 μm) and 10% by weight of trace element mixture (particle size 100-500 μm), said trace element mixture consisting of 46.78% by weight of FeSO4x7H2O (100-500 μm), 37.43% by weight of CuSO4x5H2O (100-500 μm), 11.79% by weight of ZnO (<500 μm), 3.61% by weight of MnO and 0.39% by weight of CoCO3. After addition of all ingredients, the specimens are mixed cautiously, where the mixing can be performed mechanically or else by hand, and these specimens (A) are stored in a climate-controlled chamber at 40° C. and 70% humidity for 4 weeks. An identical test is conducted with a comparative sample (B) which is of identical composition but which comprises, rather than propyl gallate, the same amount of ethoxyquin. […] The ratio of the contents after (A2), (B2) and before the storage (A1) and (B1) are used here to calculate the retention (A2/A1) or (B2/B1) of the samples. For the formulations of the invention, a quotient (A2/A1):(B2/B1) of at least 0.75 is determined here. Preferably, for the formulations of the invention, a quotient of at least 1 is obtained.
The stability of the particles thus produced was tested in a stress test. For this purpose, specimens each of 100 mg of the particles produced and 4 g of premix mixture were weighed into 50 mL glass bottles. The premix mixture consisted of 50% by weight of fine lime (particle size <1000 μm), 20% by weight of wheat bran (particle size <1000 μm), 20% by weight of 50% silica-supported choline chloride (particle size <1000 μm) and 10% by weight of trace element mixture (particle size 100-500 μm), and the trace element mixture of 46.78% by weight of FeSO4x7H2O (100-500 μm), 37.43% by weight of CuSO4x5H2O (100-500 μm), 11.79% by weight of ZnO (<500 μm), 3.61% by weight of MnO and 0.39% by weight of CoCO3. After addition of all ingredients, the specimens were carefully mixed by hand. These specimens were stored in a climate-controlled chamber at 40° C. and 70% air humidity for 4 weeks. […]

[2] = Particle size after dissolution in water by photon correlation spectroscopy (Malvern Zetasizer Nano ZSP); assay type: physicochemical; details: dry powder with propyl gallate added to the dispersion (Examples 1, 3b, 3c, 3d), PCS
Protocol: The particle size is determined by means of a Malvern Zetasizer Nano ZSP.
30 g of citranaxanthin were suspended in 240 g of isopropanol together with 1.1 g of ascorbyl palmitate and, with setting of the pressure-limiting valve to 30 bar, mixed continuously with 390 g of isopropanol in a mixing chamber A. At a metering rate of 6 L/h on the suspension side and of 9 L/h on the solvent side, a mixing temperature of 170° C. was established in the mixing chamber A. After a residence time of 0.3 second, the molecularly disperse solution was mixed in mixing chamber B with a solution of 32 g of gelatin, 71.4 g of sucrose and 50 g of glucose syrup in 4000 g of water at a throughput rate of 100 L/h. After the solvent had been removed under reduced pressure in a distillation apparatus, an active ingredient dispersion was obtained, to which 8 g of sunflower oil and 8 g of propyl gallate were added. The propyl gallate was predissolved here in 200 mL of water and adjusted to pH 7 with NaOH. Subsequently, the dispersion was converted to a stable, water-soluble dry powder by spray drying. After dissolution in water, by photon correlation spectroscopy (PCS), a particle size of 386 nm (standard deviation 142.5, polydispersity index PDI 0.185, D(95): 660 nm) was measured (Malvern Zetasizer Nano ZSP).

[3] = as above; assay type: physicochemical; details: dry powder of Example 3e, PCS
[4] = impurity from ethoxyquin preparation remaining in animal feed; cited from earlier work

**Q.** Which “Retention Active ingredient content after 4-week premix test” value ([1]; propyl gallate 0% by wt., dispersion) does the source give for `CCOC(=O)/C(C)=C/C=C/C(C)=C/C=C/C=C(C)/C=C/C=C(C)/C=C/C1=C(C)CCCC1(C)C` [C30 ester] here?
**A.** The value was 6.7%.

**Q.** What about the “Retention Active ingredient content after 4-week premix test” value ([1]; propyl gallate 2% by wt., dispersion) of the same compound?
**A.** Its value is 13.83%.

**Q.** What about the “Retention Active ingredient content after 4-week premix test” value ([1]; propyl gallate 4% by wt., dispersion) of the same compound?
**A.** The value was 42.7%.

**Q.** What about the “Retention Active ingredient content after 4-week premix test” value ([1]; propyl gallate 6% by wt., dispersion) of the same compound?
**A.** The value was 57.7%.

**Q.** And the “Retention Active ingredient content after 4-week premix test” value ([1]; propyl gallate 8% by wt., dispersion)?
**A.** The value was 64.1%.

**Q.** What about the “Retention Active ingredient content after 4-week premix test” value ([1]; propyl gallate 10% by wt., dispersion) of the same compound?
**A.** Its value is 58.5%.

**Q.** And the “Retention Active ingredient content after 4-week premix test” value ([1]; propyl gallate 12% by wt., dispersion)?
**A.** Its value is 54.3%.

**Q.** What about the “Retention Active ingredient content after 4-week test” value ([1]; Table 3e, ethoxyquin 4% by wt., dispersion) of the same compound?
**A.** The value was 28.6%.

**Q.** And the “Retention Active ingredient content after 4-week test” value ([1]; Table 3e, propyl gallate 4% by wt., dispersion)?
**A.** The value was 33.4%.

**Q.** And the “Retention Active ingredient content after 4-week test” value ([1]; Table 3e, propyl gallate 4% by wt., dispersion (pH adjustment before spraying from pH 8.5 to pH 6.8 with H2SO4))?
**A.** Its value is 39.8%.

**Q.** And the “Retention Active ingredient content after 4-week test” value ([1]; Table 3e, propyl gallate 6% by wt., dispersion)?
**A.** Its value is 44.4%.

**Q.** And the “Retention Active ingredient content after 4-week test” value ([1]; Table 3e, propyl gallate 8% by wt., dispersion)?
**A.** Its value is 43.4%.

**Q.** What about the Retention Active ingredient content after 4-week test ([1]; Table 4b, D,L-α tocopherol 4% by wt. (in active ingredient phase) + propyl gallate 4% by wt. (in protective colloid phase)) of the same compound?
**A.** Its Retention Active ingredient content after 4-week test is 29.2%.

**Q.** What about the Retention Active ingredient content after 4-week test ([1]; Table 4b, mixed tocopherol 4% by wt. (in active ingredient phase) + propyl gallate 4% by wt. (in protective colloid phase)) of the same compound?
**A.** The Retention Active ingredient content after 4-week test was 57.5%.

**Q.** And the “Retention Canthaxanthin after 4-week test” value (“Retention Canthaxanthin” for short) ([1]; propyl gallate 0% by wt., mixed tocopherol 4% by wt.)?
**A.** The value was 11%.

**Q.** And the “Retention Canthaxanthin” value ([1]; propyl gallate 4% by wt., mixed tocopherol 0% by wt.)?
**A.** The value was 42.7%.

**Q.** And the “Retention Canthaxanthin” value ([1]; propyl gallate 4% by wt., mixed tocopherol 4% by wt.)?
**A.** Its value is 61.7%.

**Q.** And the particle size [2]?
**A.** The particle size was 280 nm.

**Q.** And the “polydispersity index PDI” value [2]?
**A.** The value was 0.181.

**Q.** What about the “D(95)” value [3] of the same compound?
**A.** The value was 683 nm.

**Q.** What about the particle size [3] of the same compound?
**A.** Its particle size is 373 nm.

**Q.** And the “polydispersity index PDI” value [3]?
**A.** The value was 0.203.

**Q.** For `CCOc1ccc(N)cc1` [p-phenetidine], which mutagenicity [4] is on record?
**A.** The mutagenicity was “possibly a mutagen”.
